Tests used:
SSTR2 [1] = settings: cited from earlier work
SSTR2 [2] = experiment: Whole cell binding assay, SSTR2, competition with 125I-Tyr11-SST14, CHO-K1; settings: for IC50 ratio: IC50(mutant)/IC50(WT);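 for all read-outs here: Cell-bound radioactivity in lysed CHO-K1 cells read by scintillation counting, each mutation introduced singly into the WT receptor, at least three independent experiments run in technical triplicate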
Protocol: (§1) For SSTR2 and SSTR4, CHO-K1 cells were cultured in F12 medium with 10% FBS and seeded at a density of 30,000 cells/well in Isoplate-96 plates (PerkinElmer). Twenty-four hours after transfection with the WT or mutant SSTR2/SSTR4, CHO-K1 cells were washed twice and incubated with blocking buffer (F12 supplemented with 25 mM HEPES and 0.1% (w/v) BSA, pH 7.4) for 2 h at 37 °C. […] Following incubation, cells were washed three times with ice-cold PBS and lysed by 50 μL lysis buffer (PBS supplemented with 20 mM Tris-HCl, 1% Triton X-100, pH 7.4). The radioactivity was subsequently counted (counts/min, CPM) in a scintillation counter (MicroBeta[2] Plate Counter, PerkinElmer) using a scintillation cocktail (OptiPhaseSuperMix, PerkinElmer). Data were analyzed by nonlinear regression using GraphPad PRISM 8.
(§2) aMutants represent that all mutations were introduced separately into the WT receptors
and expressed in CHO K1 cells.
(§3) bThe IC50 ratio was shown as IC50(mutant)/IC50(WT), indicating the shift between the WT
(§4) and mutant curves, reflecting the effect of the mutations on ligand binding.
(§5) cData are shown as mean ± S.E.M. form at least three independent experiments
(§6) performed in technical triplicate. One-way ANOVA was performed followed by
(§7) Dunnett’s post-test and compared with WT.
(§8) d The span is defined as the window between the maximal agonists response (Emax) and
(§9) e Sample size; the number of independent experiments performed in technical triplicate.

SSTR2 [3] = target: SSTR2 (Homo sapiens, UniProt P30874, Q126A); experiment: as above; settings: SSTR2 mutant Q126^3.36A; mean ± SEM
SSTR2 (Homo sapiens, UniProt P30874, Q126A), sequence (P30874 whole entry Q126A): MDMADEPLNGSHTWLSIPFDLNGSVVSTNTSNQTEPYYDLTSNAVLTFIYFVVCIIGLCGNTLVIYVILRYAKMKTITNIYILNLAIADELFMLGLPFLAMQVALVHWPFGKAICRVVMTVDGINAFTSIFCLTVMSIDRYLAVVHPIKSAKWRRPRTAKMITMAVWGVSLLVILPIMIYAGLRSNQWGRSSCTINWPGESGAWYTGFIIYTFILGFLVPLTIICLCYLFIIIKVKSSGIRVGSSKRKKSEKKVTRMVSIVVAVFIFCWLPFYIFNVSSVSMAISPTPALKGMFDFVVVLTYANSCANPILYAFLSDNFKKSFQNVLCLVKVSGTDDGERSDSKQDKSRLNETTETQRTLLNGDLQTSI
Protocol: as §1, §2
and expressed in CHO K1 cells.
as §3, §4, §5, §6, §7, §8, §9

SSTR2 [4] = target: SSTR2 (Homo sapiens, UniProt P30874, D122A); experiment: as above; settings: SSTR2 mutant D122^3.32A; mean ± SEM
SSTR2 (Homo sapiens, UniProt P30874, D122A), sequence (P30874 whole entry D122A): as the sequence (P30874 whole entry Q126A) above, with D122A, A126Q counted along it
Protocol: as §1, §2
and expressed in CHO K1 cells.
as §3, §4, §5, §6, §7, §8, §9

SSTR2 [5] = target: SSTR2 (Homo sapiens, UniProt P30874, F272A); experiment: as above; settings: SSTR2 mutant F272^6.51A; mean ± SEM
SSTR2 (Homo sapiens, UniProt P30874, F272A), sequence (P30874 whole entry F272A): as the sequence (P30874 whole entry Q126A) above, with A126Q, F272A counted along it
Protocol: as §1, §2
and expressed in CHO K1 cells.
as §3, §4, §5, §6, §7, §8, §9

SSTR2 [6] = target: SSTR2 (Homo sapiens, UniProt P30874, Y205A); experiment: as above; settings: SSTR2 mutant Y205^5.35A; mean ± SEM
SSTR2 (Homo sapiens, UniProt P30874, Y205A), sequence (P30874 whole entry Y205A): as the sequence (P30874 whole entry Q126A) above, with A126Q, Y205A counted along it
Protocol: as §1, §2
and expressed in CHO K1 cells.
as §3, §4, §5, §6, §7, §8, §9

SSTR2 [7] = target: SSTR2 (Homo sapiens, UniProt P30874, F294A); experiment: as above; settings: SSTR2 mutant F294^7.35A; mean ± SEM
SSTR2 (Homo sapiens, UniProt P30874, F294A), sequence (P30874 whole entry F294A): as the sequence (P30874 whole entry Q126A) above, with A126Q, F294A counted along it
Protocol: as §1, §2
and expressed in CHO K1 cells.
as §3, §4, §5, §6, §7, §8, §9

SSTR2 [8] = target: SSTR2 (Homo sapiens, UniProt P30874); experiment: as above; settings: WT SSTR2, mean ± SEM
SSTR2 (Homo sapiens, UniProt P30874), sequence (P30874 whole entry): as the sequence (P30874 whole entry Q126A) above, with A126Q counted along it
Protocol: as §1, §2
and expressed in CHO K1 cells.
as §3, §4, §5, §6, §7, §8, §9

SSTR2 [9] = target: SSTR2 (Homo sapiens, UniProt P30874, Y302A); experiment: as above; settings: SSTR2 mutant Y302^7.43A; mean ± SEM
SSTR2 (Homo sapiens, UniProt P30874, Y302A), sequence (P30874 whole entry Y302A): as the sequence (P30874 whole entry Q126A) above, with A126Q, Y302A counted along it
Protocol: as §1, §2
and expressed in CHO K1 cells.
as §3, §4, §5, §6, §7, §8, §9

SSTR2 [10] = target: SSTR2 (Homo sapiens, UniProt P30874, T212A); experiment: as above; settings: SSTR2 mutant T212^5.42A; mean ± SEM
SSTR2 (Homo sapiens, UniProt P30874, T212A), sequence (P30874 whole entry T212A): as the sequence (P30874 whole entry Q126A) above, with A126Q, T212A counted along it
Protocol: as §1, §2
and expressed in CHO K1 cells.
as §3, §4, §5, §6, §7, §8, §9

SSTR2 [11] = target: SSTR2 (Homo sapiens, UniProt P30874, F275A); experiment: as above; settings: SSTR2 mutant F275^6.54A; mean ± SEM
SSTR2 (Homo sapiens, UniProt P30874, F275A), sequence (P30874 whole entry F275A): as the sequence (P30874 whole entry Q126A) above, with A126Q, F275A counted along it
Protocol: as §1, §2
and expressed in CHO K1 cells.
as §3, §4, §5, §6, §7, §8, §9

SSTR2 [12] = target: SSTR2 (Homo sapiens, UniProt P30874, Q102A); experiment: as above; settings: SSTR2 mutant Q102^2.63A; mean ± SEM
SSTR2 (Homo sapiens, UniProt P30874, Q102A), sequence (P30874 whole entry Q102A): as the sequence (P30874 whole entry Q126A) above, with Q102A, A126Q counted along it
Protocol: as §1, §2
and expressed in CHO K1 cells.
as §3, §4, §5, §6, §7, §8, §9

SSTR2 [13] = target: SSTR2 (Homo sapiens, UniProt P30874, T194A); experiment: as above; settings: SSTR2 mutant T194^ECL2A; mean ± SEM
SSTR2 (Homo sapiens, UniProt P30874, T194A), sequence (P30874 whole entry T194A): as the sequence (P30874 whole entry Q126A) above, with A126Q, T194A counted along it
Protocol: as §1, §2
and expressed in CHO K1 cells.
as §3, §4, §5, §6, §7, §8, §9

SSTR2 [14] = target: T1, SSTR2 (Homo sapiens, UniProt P30874, F208A); experiment: cAMP accumulation assay (agonist-induced inhibition of forskolin-stimulated cAMP), SSTR2, HEK293F; assay type: cell-based; settings: SSTR2 mutant F208^5.38A; mean ± SEM;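 note: transiently transfected cells exposed to 2 µM forskolin and a ligand concentration series for 40 min at room temperature in IBMX-containing HBSS, then cAMP quantified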
T1 construct: expressed in transfected cells; host or cells: HEK293F
T1 sequence (P30874 whole entry F208A): as the sequence (P30874 whole entry Q126A) above, with A126Q, F208A counted along it
Protocol: (§10) HEK293F cells were transiently transfected with WT or mutant SSTR2/SSTR4 using transfection reagent (PEI MAX 2000, Polysciences) and incubated at 37 °C in 5% CO2. Forty-eight hours after transfection, cells were centrifuged and resuspended in stimulation buffer (Hanks’ balanced salt solution (HBSS) supplemented with 5 mM HEPES, 0.5 mM IBMX and 0.1% (w/v) bovine serum albumin (BSA), pH 7.4) to a density of 200,000 cells/mL and added to 384-well white plates (PerkinElmer, 1000 cells/well). cAMP accumulation was measured by a LANCE Ultra cAMP kit (PerkinElmer) according to the manufacturer’s instructions. In brief, transfected cells were incubated for 40 min in stimulation buffer with 2.5 μL forskolin (SSTR2: 2 μM; SSTR4: 4 μM) and gradient concentration of ligand at RT. The reactions were stopped by addition of lysis buffer containing 5 μL Eu-cAMP tracer and 5 μL ULight-anti-cAMP. Plates were then incubated for 60 min at RT and time-resolved FRET signals were measured at 620 nm and 665 nm by an EnVision multilabel plate reader (PerkinElmer). Data were analyzed in GraphPad PRISM 8 and all values were normalized to the WT for each ligand. All outcomes were repeated at least three times.
(§11) aMutants represent that mutations were introduced separately into the WT receptors and
(§12) transiently expressed in HEK 293F cells.
(§13) bThe EC50 ratio was shown as EC50(mutant)/EC50(WT), indicating the shift between the WT
(§14) and mutant curves, reflecting the effect of the mutations on receptor signaling.
(§15) cData are shown as mean ± S.E.M. from at least three independent experiments
as §6
(§16) Dunnett’s post-test and compared with WT. The P value was defined as: *P<0.05;
as §8, §9
(§17) f Receptor expression level of HEK 293F cells was determined independently by flow
(§18) cytometry with anti-FLAG antibody and shown as per cent compared to the WT.

SSTR2 [15] = target: T2, SSTR2 (Homo sapiens, UniProt P30874, K291A); experiment: as above; assay type: cell-based; settings: SSTR2 mutant K291^7.32A; mean ± SEM
T2 construct: expressed in transfected cells; host or cells: HEK293F
T2 sequence (P30874 whole entry K291A): as the sequence (P30874 whole entry Q126A) above, with A126Q, K291A counted along it
Protocol: as §10, §11, §12, §13, §14, §15, §6, §16, §8, §9, §17, §18

SSTR2 [16] = experiment: as above; assay type: cell-based, human; settings: EC50(mutant)/EC50(WT)
Protocol: as §10, §11, §12, §13, §14, §15, §6, §16, §8, §9, §17, §18

SSTR2 [17] = target: T3, SSTR2 (Homo sapiens, UniProt P30874, N276A); experiment: as above; assay type: cell-based; settings: SSTR2 mutant N276^6.55A; mean ± SEM
T3 construct: expressed in transfected cells; host or cells: HEK293F
T3 sequence (P30874 whole entry N276A): as the sequence (P30874 whole entry Q126A) above, with A126Q, N276A counted along it
Protocol: as §10, §11, §12, §13, §14, §15, §6, §16, §8, §9, §17, §18

SSTR2 [18] = target: T4, SSTR2 (Homo sapiens, UniProt P30874, S316D/V106E); experiment: as above; assay type: cell-based; settings: Construct 2* SSTR2; mean ± SEM
T4 construct: expressed in transfected cells; host or cells: HEK293F
T4 sequence (P30874 1-359 V106E/S316D): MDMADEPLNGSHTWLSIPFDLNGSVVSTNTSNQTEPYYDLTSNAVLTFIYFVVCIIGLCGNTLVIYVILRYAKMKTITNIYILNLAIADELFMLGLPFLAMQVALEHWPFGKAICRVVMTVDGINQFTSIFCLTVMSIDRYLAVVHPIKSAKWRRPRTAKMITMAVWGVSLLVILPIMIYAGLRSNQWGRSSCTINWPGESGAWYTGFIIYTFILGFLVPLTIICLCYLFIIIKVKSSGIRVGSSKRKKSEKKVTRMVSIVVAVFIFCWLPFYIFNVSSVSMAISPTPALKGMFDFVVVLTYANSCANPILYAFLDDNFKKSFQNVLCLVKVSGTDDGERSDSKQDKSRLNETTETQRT
Protocol: as §10, §11, §12, §13, §14, §15, §6, §16, §8, §9, §17, §18

SSTR2 [19] = target: T5, SSTR2 (Homo sapiens, UniProt P30874, V298A); experiment: as above; assay type: cell-based; settings: SSTR2 mutant V298^7.39A; mean ± SEM
T5 construct: expressed in transfected cells; host or cells: HEK293F
T5 sequence (P30874 whole entry V298A): as the sequence (P30874 whole entry Q126A) above, with A126Q, V298A counted along it
Protocol: as §10, §11, §12, §13, §14, §15, §6, §16, §8, §9, §17, §18

SSTR2 [20] = target: T6, SSTR2 (Homo sapiens, UniProt P30874, I284A); experiment: as above; assay type: cell-based; settings: SSTR2 mutant I284^ECL3A; mean ± SEM
T6 construct: expressed in transfected cells; host or cells: HEK293F
T6 sequence (P30874 whole entry I284A): as the sequence (P30874 whole entry Q126A) above, with A126Q, I284A counted along it
Protocol: as §10, §11, §12, §13, §14, §15, §6, §16, §8, §9, §17, §18

SSTR2 [21] = target: T7, SSTR2 (Homo sapiens, UniProt P30874, P286A); experiment: as above; assay type: cell-based; settings: SSTR2 mutant P286^ECL3A; mean ± SEM
T7 construct: expressed in transfected cells; host or cells: HEK293F
T7 sequence (P30874 whole entry P286A): as the sequence (P30874 whole entry Q126A) above, with A126Q, P286A counted along it
Protocol: as §10, §11, §12, §13, §14, §15, §6, §16, §8, §9, §17, §18

## C[C@@H](c1c[nH]c2ccccc12)[C@@H](NC(=O)N1CCC(n2c(=O)[nH]c3ccccc32)CC1)C(=O)N[C@@H](CCCCN)C(=O)OC(C)(C)C [L-054,522]
SSTR2 [1]
  selectivity for SSTR2: at least 3000 fold
SSTR2 [2]; Construct 2 SSTR2
  IC50 ratio: 3
SSTR2 [2]; SSTR2 mutant F275^6.54A
  IC50 ratio: 9
SSTR2 [2]; SSTR2 mutant Q102^2.63A
  IC50 ratio: 152
SSTR2 [2]; SSTR2 mutant T194^ECL2A
  IC50 ratio: 12
SSTR2 [2]; SSTR2 mutant T212^5.42A
  IC50 ratio: 1
SSTR2 [2]; SSTR2 mutant Y205^5.35A
  IC50 ratio: 0.4
SSTR2 [2]; WT SSTR2
  IC50 ratio: 1
SSTR2 [2]; crystallization construct vs WT SSTR2
  effect of construct modifications on binding and signaling: little effect on L-054,522 binding and signaling
SSTR2 [3]
  Span: 15±5 % of WT
SSTR2 [4]
  Span: 15±7 % of WT
SSTR2 [5]
  Span: 13±3 % of WT
SSTR2 [6]
  Span: 70±5 % of WT
  pIC50 ± SEM: 8.89±0.15
SSTR2 [7]
  Span: 19±2 % of WT
SSTR2 [8]; competition with 125I-SST-14
  pKi ± SEM: 8.53 ± 0.13
SSTR2 [8]
  Span: 100±6 % of WT
SSTR2 [8]; at least three independent experiments
  pIC50 ± SEM: 8.53±0.13
SSTR2 [9]
  Span: 15±2 % of WT
SSTR2 [10]
  Span: 94±5 % of WT
  pIC50 ± SEM: 8.49±0.11
SSTR2 [11]
  Span: 33±3 % of WT
  pIC50 ± SEM: 7.57±0.23
SSTR2 [12]
  Span: 20±5 % of WT
  pIC50 ± SEM: 6.35±0.52
SSTR2 [13]
  Span: 22±6 % of WT
  pIC50 ± SEM: 7.45±0.59
SSTR2 [14]
  Span: 81±5 % of WT
  pEC50 ± SEM: 9.34±0.13
SSTR2 [15]
  pEC50 ± SEM: 9.02±0.12
SSTR2 [16]; Construct 2* SSTR2
  EC50 ratio: 2
SSTR2 [16]; SSTR2 mutant D122^3.32A
  EC50 ratio: 191
SSTR2 [16]; SSTR2 mutant F208^5.38A
  EC50 ratio: 2
SSTR2 [16]; SSTR2 mutant F272^6.51A
  EC50 ratio: 64
SSTR2 [16]; SSTR2 mutant F275^6.54A
  EC50 ratio: 5
SSTR2 [16]; SSTR2 mutant F294^7.35A
  EC50 ratio: 20
SSTR2 [16]; SSTR2 mutant I284^ECL3A
  EC50 ratio: 4
SSTR2 [16]; SSTR2 mutant K291^7.32A
  EC50 ratio: 4
SSTR2 [16]; SSTR2 mutant N276^6.55A
  EC50 ratio: 15
SSTR2 [16]; SSTR2 mutant P286^ECL3A
  EC50 ratio: 7
SSTR2 [16]; SSTR2 mutant Q102^2.63A
  EC50 ratio: 2
SSTR2 [16]; SSTR2 mutant Q126^3.36A
  EC50 ratio: 3
SSTR2 [16]; SSTR2 mutant T194^ECL2A
  EC50 ratio: 3
SSTR2 [16]; SSTR2 mutant T212^5.42A
  EC50 ratio: 5
SSTR2 [16]; SSTR2 mutant V298^7.39A
  EC50 ratio: 10
SSTR2 [16]; SSTR2 mutant Y205^5.35A
  EC50 ratio: 0.05
SSTR2 [16]; SSTR2 mutant Y302^7.43A
  EC50 ratio: 10
SSTR2 [17]
  Span: 80±5 % of WT
  pEC50 ± SEM: 8.47±0.15
SSTR2 [18]
  Span: 76±6 % of WT
  pEC50 ± SEM: 9.28±0.17
SSTR2 [19]
  Span: 131±9 % of WT
  pEC50 ± SEM: 8.68±0.16
SSTR2 [20]
  Span: 84±7 % of WT
  pEC50 ± SEM: 9.07±0.22
SSTR2 [21]
  Span: 96±7 % of WT
  pEC50 ± SEM: 8.83±0.18
